The source of these data is US20180296537A1, “METHODS AND COMPOSITIONS FOR DIAGNOSING, TREATING, AND MONITORING TREATMENT OF SHANK3 DEFICIENCY ASSOCIATED DISORDERS” (Novartis AG, priority 2015, published 2018).

SMILES strings stand for the structures. Entries after “also recorded” stand apart in the source; their conditions may differ.

Assay [1] deals with CA1 neurons. Briefly: mEPSC recordings from shRNA-expressing CA1 neurons in hippocampal organotypic slice cultures. The class given is cell-based, mouse. Particulars: Shank3 knock down neurons; overnight 4 μg/ml SC79. The method, then:
Organotypice slices and cell cultures were transferred from growth medium to an interface chamber containing ACSF equilibrated with 95% O2/5% CO2 containing the following (in mM): 124 NaCl, 2.7 KCl, 2 CaCl2, 1.3 MgCl2, 26 NaHCO3, 0.4 NaH2PO4, 18 glucose, 4 ascorbate. Recordings were performed with ACSF in a recording chamber at a temperature of 35° C. at a perfusion rate of 1-2 ml/min. Neurons were visually identified with infrared video microscopy using an upright microscope equipped with a 40× objective (Olympus, Tokyo, Japan). Patch electrodes (3-5 MΩ) were pulled from borosilicate glass tubing. […]
Whole cell patch-clamp recordings were excluded if the access resistance exceeded 13 MΩ and changed more than 20% during the recordings. Data were recorded with a MultiClamp 700B (Molecular Devices) amplifier, filtered at 0.2 kHz, and digitised at 10 kHz. Data were acquired and analysed with Clampex 10.0, Clampfit 10.0 (Molecular Devices) and the Mini Analysis Program (Synaptosoft, Decatur, Ga.). […]
Given that SC79 and TG003 were able to recover spine numbers in Shank3 knock down neurons, the reinstatement of synaptic transmission was examined next. First, miniature excitatory postsynaptic currents (mEPSCs) were recorded from shRNA-expressing CA1 neurons in hippocampal organotypic slice cultures. […]

In assay [2] the test system is Shank3^ΔC/ΔC mice. The assay can be described thus: Spontaneous self-grooming. Particulars: 10 minute interval; TG003-treated Shank3^ΔC/ΔC mice. The class given is in vivo, mouse. The method, then:
To monitor spontaneous self-grooming, mice were placed in a clean cage (identical to the home cage), with minimal bedding to discourage digging, which was then placed in the sound-proof box for video monitoring. Animals were habituated in the new cage for 10 minutes before self-grooming was monitored during another 10 minutes. Cumulative grooming time was reported for this second 10 minute period.

Assay [3] concerns Shank3^ΔC/ΔC mice. Briefly: Three-chamber social interaction task. The assay is classed as in vivo, mouse. The method, then: The three-chamber social interaction task was performed in a three-chambered arena with transparent walls and retractable doorways to allow mice access to flanking chambers (FIG. 9F). During testing, the arena was placed in a lighted, sound-proof box with no side-biasing features. A video camera was mounted above for recording. The test comprised three phases with different stimuli placed in the side chambers successively between phases. Each stimulus (social or inanimate) was placed within a small wire cage for immobilization while test mice were allowed to freely investigate the stimuli. In Phase 1, identical inanimate objects (inverted ceramic cups with blue stripe) were placed in both side chambers. An intruder mouse (same strain) was introduced in one side chamber as the social stimulus in Phase 2. In Phase 3, a second intruder mouse was placed in the other side chamber (novel social stimulus). Each phase consisted of a 7.5 minute exploration period with 5 minutes in the home cage between phases. The test animal was placed in the center chamber to start the task. Animals were habituated to the arena 24 hours before testing during which time they were allowed to freely explore the entire arena, with empty wire cages in side chambers, for 10 minutes. Social interaction time for a given phase was scored by cumulative social/investigative behaviors, in particular sniffing and actively seeking a stimulus. Proximity to a stimulus without investigation was not counted. Preference index was calculated by subtracting interaction time with one stimulus from that of the other stimulus in the same testing phase then dividing this by the sum of interaction times for both stimuli and converting this to a percentage. Positive scores indicate a preference for the first stimulus in the equation. […]

Take `CCOC(=O)C1=C(N)Oc2ccc(Cl)cc2C1C(C#N)C(=O)OCC` (stereo not drawn) [SC79]: the mEPSC frequency entry in assay [1] was “completely restored mEPSC frequency to control levels”.
Regarding `CCN1/C(=C/C(C)=O)Sc2ccc(OC)cc21` [TG003, (Z)-1-(3-ethyl-5-methoxy-2,3-dihydrobenzothiazol-2-ylidene)propan-2-one], the self-grooming entry in assay [2] was “significantly decreased self-grooming although not to wild type frequency”. Further, the total distance travelled entry in assay [3] (phase 1 or phase 2, TG003-treated mice) is “no change from wild type in total distance travelled”. Further, in assay [3] (phase 2, 30 mg/kg TG003 i.p. 6-8 hours before testing, 30 mg/kg), the “preference for social interaction (S1 versus O1 interaction times)” value was “recovered normal preference for social interaction; also recorded: corrected”. Further, the “social investigation after delay” value in assay [3] (phase 2, 72 hours after TG003 treatment) was “maintained 72 hours after treatment”. Besides, in assay [3] (phase 2, TG003-treated Shank3^ΔC/ΔC mice), the “time spent in S1 chamber” value is on record as “restores the time spent in the Si chamber to wild type levels”.
